From ChEMBL document CHEMBL2074227, “Antiestrogens and steroid hormones: substrates of the human P-glycoprotein” (Biochem Pharmacol, 1994)

Molecular target: ATP-dependent translocase ABCB1 (Homo sapiens, UniProt P08183)
Assay: TP_TRANSPORTER: ATP hydrolysis in MDR1-expressing Sf9 cells
Assay type: functional

Chain of ATP-dependent translocase ABCB1 (P08183 whole entry): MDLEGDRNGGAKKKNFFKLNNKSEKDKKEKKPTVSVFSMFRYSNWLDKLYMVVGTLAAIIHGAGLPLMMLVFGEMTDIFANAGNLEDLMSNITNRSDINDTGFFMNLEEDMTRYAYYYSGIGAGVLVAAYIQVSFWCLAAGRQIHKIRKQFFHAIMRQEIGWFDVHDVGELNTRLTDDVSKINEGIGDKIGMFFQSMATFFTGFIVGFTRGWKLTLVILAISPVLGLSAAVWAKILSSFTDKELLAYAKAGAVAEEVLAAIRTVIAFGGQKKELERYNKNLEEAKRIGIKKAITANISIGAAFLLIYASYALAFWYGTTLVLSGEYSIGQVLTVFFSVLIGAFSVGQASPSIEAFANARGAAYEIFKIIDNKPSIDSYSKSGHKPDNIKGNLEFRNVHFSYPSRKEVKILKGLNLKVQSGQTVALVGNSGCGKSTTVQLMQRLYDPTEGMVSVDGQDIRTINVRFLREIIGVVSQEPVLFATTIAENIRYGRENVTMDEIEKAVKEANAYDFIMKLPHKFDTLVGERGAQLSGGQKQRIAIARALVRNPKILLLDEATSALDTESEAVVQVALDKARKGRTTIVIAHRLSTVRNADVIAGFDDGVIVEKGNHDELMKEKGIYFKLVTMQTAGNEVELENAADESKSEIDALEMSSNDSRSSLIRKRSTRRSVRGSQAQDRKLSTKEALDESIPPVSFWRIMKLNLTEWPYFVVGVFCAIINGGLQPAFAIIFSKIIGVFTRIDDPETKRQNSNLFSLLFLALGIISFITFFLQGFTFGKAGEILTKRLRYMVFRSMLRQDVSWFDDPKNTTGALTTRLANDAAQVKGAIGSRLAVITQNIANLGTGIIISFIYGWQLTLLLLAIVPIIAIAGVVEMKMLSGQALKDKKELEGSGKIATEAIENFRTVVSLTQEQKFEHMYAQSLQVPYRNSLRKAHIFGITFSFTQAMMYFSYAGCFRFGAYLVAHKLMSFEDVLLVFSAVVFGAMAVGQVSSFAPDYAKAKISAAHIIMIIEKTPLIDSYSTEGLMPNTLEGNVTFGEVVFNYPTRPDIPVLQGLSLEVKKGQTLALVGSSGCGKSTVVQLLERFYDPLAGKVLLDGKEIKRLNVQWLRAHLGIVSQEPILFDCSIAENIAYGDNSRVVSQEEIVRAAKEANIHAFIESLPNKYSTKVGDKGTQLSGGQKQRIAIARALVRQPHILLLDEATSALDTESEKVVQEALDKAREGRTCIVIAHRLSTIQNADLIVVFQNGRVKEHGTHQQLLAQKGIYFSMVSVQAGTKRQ

Row | Activity | SMILES
1 | substrate [+] | CCN(CC)CCOc1ccc(C(=C(Cl)c2ccccc2)c2ccccc2)cc1 [CLOMIPHENE]
2 | substrate [+] | CC/C(=C(\c1ccccc1)c1ccc(OCCN)cc1)c1ccccc1 [DESMETHYL TAMOXIFEN]
3 | substrate [+] | CC/C(=C(/c1ccc(OCCN(C)C)cc1)c1cccc(O)c1)c1ccccc1 [DROLOXIFENE]

The next lines start with the molecule.

Row | SMILES | Activity
4 | CCC(=C(c1ccc(O)cc1)c1ccc(OCCN(C)C)cc1)c1ccccc1 | substrate [+]
5 | C[C@]12C[C@H](O)[C@H]3[C@@H](CCC4=CC(=O)CC[C@@]43C)[C@@H]1CC[C@@H]2C(=O)CO [CORTICOSTERONE] | substrate [+]
6 | CC/C(=C(/CC)c1ccc(O)cc1)c1ccc(O)cc1 [DIETHYLSTILBESTROL] | substrate [+]
7 | C[C@]12CC[C@@H]3c4ccc(O)cc4CC[C@H]3[C@@H]1CC[C@@H]2O [ESTRADIOL] | substrate [+]
8 | COc1ccc2c(c1)CCC(c1ccccc1)=C2c1ccc(OCCN2CCCC2)cc1 [NAFOXIDINE] | substrate [+]
9 | CN(C)CCOc1ccc(/C(=C(/CCCl)c2ccccc2)c2ccccc2)cc1 [TOREMIFENE] | substrate [+]
